Experiment [1] deals with potassium channel [KA], [KV] or [SKCa]. Description: Potassium channel receptor binding. The following applies: read-out: K** (IC50). On the procedure:
(§1) The opioid (μ) receptor binding capabilities of compounds described herein were determined according to the procedures outlined by Wang et al. (FEBS Letters 1994, 338, 217). The sodium channel receptor binding capabilities of compounds described herein were determined according to the procedures outlined by Catterall et al. (J. Biol. Chem. 1981, 256, 8922). The calcium channel receptor binding capabilities of compounds described herein were determined according to the procedures outlined by Gould et al. (Proc. Natl. Acad. Sci. USA 1982, 79, 3656), Ehlert et al. (Life Sci. 1982, 30, 2191), Reynolds et al. (J. Pharmacol. Exp. Ther. 1986, 237, 731), Moresco et al. (Neurobiology of Aging 1990, II, 433) and Schoemaker et al. (Eur. J. Pharmacol. 1985, III, 273). The potassium channel receptor binding capabilities of compounds described herein were determined according to the procedures outlined by Taylor et al. (J. Biol. Chem. 1984, 259, 13957), Rehm et al. (Proc. Natl. Acad. Sci. USA 1988, 85, 4919), Vasquez et al. (J. Biol. Chem. 1990, 265, 15564) and Mourre et al. (Brain Research 1986, 382, 239).

The target in the next experiment is calcium channel (type N) (Rattus norvegicus, UniProt Q02294). Nature of the experiment: Calcium channel receptor binding, type N. The conditions noted are these: read-out: Ca (type N) (IC50). On the procedure: as §1
calcium channel (type N), sequence (Q02294 whole entry): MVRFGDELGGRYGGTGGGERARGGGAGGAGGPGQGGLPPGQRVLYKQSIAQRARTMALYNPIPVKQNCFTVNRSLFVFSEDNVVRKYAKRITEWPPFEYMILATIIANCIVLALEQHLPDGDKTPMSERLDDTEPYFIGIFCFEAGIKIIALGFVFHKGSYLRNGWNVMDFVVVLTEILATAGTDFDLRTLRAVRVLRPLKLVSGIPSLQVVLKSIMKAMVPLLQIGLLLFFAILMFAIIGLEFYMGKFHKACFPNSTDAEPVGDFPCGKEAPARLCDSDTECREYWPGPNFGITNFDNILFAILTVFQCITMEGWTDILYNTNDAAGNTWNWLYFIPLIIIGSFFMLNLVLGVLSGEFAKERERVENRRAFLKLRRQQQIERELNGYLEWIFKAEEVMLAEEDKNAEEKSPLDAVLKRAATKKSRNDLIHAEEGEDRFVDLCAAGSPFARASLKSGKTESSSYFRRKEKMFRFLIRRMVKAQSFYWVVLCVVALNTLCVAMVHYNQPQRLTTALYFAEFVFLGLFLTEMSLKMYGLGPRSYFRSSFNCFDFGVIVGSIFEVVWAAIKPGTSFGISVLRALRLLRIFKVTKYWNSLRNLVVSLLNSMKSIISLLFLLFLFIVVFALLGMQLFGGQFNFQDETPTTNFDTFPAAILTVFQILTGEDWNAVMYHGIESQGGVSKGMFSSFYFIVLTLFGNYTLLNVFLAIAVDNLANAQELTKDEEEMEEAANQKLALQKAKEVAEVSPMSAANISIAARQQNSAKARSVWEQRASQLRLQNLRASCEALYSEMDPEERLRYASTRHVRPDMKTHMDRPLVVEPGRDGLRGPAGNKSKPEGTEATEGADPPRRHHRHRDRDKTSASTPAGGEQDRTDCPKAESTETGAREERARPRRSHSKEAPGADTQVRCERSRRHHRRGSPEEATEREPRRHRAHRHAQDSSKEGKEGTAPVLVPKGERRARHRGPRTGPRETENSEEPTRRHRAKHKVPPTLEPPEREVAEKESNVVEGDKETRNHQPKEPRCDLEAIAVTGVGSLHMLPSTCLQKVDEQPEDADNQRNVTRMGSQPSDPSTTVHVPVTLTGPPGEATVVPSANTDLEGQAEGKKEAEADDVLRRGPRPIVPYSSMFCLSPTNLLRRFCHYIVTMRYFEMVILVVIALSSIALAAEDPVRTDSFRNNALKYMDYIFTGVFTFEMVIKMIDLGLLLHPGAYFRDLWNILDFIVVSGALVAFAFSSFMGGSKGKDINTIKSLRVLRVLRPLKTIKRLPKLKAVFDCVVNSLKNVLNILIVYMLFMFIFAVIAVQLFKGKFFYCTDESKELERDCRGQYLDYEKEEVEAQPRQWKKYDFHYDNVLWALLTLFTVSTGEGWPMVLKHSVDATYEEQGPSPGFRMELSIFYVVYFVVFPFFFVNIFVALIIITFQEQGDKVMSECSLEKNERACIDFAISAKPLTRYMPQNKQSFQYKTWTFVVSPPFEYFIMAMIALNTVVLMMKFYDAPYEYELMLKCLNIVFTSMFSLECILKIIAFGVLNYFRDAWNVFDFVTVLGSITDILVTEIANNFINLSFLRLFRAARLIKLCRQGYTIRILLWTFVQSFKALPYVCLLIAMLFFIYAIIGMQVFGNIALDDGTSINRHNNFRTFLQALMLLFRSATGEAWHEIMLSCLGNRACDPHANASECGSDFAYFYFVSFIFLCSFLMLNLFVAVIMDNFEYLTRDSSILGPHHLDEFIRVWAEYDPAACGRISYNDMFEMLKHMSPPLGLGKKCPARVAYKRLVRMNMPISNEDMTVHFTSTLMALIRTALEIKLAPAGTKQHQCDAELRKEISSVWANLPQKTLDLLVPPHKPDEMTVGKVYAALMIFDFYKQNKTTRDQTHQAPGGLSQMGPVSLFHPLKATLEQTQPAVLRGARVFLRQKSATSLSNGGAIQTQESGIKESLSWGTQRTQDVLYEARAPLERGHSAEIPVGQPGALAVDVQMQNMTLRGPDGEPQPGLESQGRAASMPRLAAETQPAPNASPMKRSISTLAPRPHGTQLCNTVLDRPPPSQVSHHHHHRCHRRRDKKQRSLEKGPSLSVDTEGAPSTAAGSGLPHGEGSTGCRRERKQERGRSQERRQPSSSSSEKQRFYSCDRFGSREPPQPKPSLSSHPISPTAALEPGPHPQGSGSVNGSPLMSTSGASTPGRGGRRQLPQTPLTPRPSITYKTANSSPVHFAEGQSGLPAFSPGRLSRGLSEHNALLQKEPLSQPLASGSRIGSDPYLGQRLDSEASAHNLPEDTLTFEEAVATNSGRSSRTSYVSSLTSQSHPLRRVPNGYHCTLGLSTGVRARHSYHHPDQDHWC
calcium channel (type N), sequence (P54287 whole entry partner): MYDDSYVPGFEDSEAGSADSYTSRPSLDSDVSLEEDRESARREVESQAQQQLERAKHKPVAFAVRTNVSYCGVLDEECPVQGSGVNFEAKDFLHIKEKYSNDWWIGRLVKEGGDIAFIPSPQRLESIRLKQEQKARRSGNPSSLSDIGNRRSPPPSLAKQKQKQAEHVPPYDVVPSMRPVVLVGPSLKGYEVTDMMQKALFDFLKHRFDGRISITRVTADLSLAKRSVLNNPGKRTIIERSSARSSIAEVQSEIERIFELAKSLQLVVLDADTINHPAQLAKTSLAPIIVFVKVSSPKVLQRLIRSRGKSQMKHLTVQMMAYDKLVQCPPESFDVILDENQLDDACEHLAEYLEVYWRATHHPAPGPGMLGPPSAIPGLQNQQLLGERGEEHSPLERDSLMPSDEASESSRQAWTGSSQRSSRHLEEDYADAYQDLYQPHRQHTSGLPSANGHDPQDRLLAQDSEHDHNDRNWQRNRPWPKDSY
calcium channel (type N), sequence (P54290 25-944 partner limits assumed): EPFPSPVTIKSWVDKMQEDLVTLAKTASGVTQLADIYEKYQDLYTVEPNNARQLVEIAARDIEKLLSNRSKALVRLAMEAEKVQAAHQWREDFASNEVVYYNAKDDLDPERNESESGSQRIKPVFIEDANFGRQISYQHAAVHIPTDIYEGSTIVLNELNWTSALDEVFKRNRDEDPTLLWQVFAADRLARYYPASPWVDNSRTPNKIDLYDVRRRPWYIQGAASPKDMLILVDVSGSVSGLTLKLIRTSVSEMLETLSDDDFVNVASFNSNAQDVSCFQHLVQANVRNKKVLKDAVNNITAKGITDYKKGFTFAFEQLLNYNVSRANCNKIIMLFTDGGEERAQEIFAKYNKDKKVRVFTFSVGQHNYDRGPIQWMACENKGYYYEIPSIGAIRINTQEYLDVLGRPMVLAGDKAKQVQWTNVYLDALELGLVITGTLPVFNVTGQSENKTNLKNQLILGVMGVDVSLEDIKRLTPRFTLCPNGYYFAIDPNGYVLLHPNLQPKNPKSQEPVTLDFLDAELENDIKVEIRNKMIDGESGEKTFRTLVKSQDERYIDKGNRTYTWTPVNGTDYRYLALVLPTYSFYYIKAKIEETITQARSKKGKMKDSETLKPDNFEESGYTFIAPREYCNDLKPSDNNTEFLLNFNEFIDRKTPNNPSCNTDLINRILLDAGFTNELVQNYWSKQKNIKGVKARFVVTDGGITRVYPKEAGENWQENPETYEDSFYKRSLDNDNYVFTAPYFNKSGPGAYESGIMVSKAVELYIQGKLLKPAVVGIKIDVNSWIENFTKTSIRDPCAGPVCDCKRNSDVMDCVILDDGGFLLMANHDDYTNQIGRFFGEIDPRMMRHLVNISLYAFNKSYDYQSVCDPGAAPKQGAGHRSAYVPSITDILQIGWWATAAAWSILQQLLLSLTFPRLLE
calcium channel (type N), sequence (P54290 945-1091 partner limits assumed): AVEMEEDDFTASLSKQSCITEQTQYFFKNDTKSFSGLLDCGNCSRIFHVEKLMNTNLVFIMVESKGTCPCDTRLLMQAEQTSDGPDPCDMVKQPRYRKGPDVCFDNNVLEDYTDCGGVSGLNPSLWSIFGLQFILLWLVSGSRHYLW
Another experiment concerns the target sodium channel (site 2). Nature of the experiment: Sodium channel receptor binding (site 2). The following applies: sodium channel site 2 binding; read-out: Na (site 2) (IC50). On the procedure: as §1
Another experiment addresses opioid (μ) receptor (Homo sapiens, UniProt P35372). Description: Opioid (μ) receptor binding.
Text: Another assay useful in the present invention concerns determining the ability of a ligand to bind to a biological receptor utilizing a technique well known in the art referred to as a radioligand binding assay. This assay accurately determines the specific binding of a radioligand to a targeted receptor through the delineation of its total and nonspecific binding components. Total binding is defined as the amount of radioligand that remains following the rapid separation of the radioligand bound in a receptor preparation (cell homogenates or recombinate receptors) from that which is unbound. The nonspecific binding component is defined as the amount of radioligand that remains following separation of the reaction mixture consisting of receptor, radioligand and an excess of unlabeled ligand. Under this condition, the only radioligand that remains represents that which is bound to components other that receptor. The specific radioligand bound is determined by subtracting the nonspecific from total radioactivity bound. For a specific example of radioligand binding assay for μ-opioid receptor, see Wang, J. B. et al. FEBS Letters 1994, 338, 217.
as §1

We go through 20 compounds from patent US7115664B2, “Peptidomimetic ligands for cellular receptors and ion channels” (Sepracor Inc., priority 2000, dated 2006).

What is called IC50 is the concentration that gives 50% inhibition.

opioid (μ) receptor, sequence (P35372 whole entry): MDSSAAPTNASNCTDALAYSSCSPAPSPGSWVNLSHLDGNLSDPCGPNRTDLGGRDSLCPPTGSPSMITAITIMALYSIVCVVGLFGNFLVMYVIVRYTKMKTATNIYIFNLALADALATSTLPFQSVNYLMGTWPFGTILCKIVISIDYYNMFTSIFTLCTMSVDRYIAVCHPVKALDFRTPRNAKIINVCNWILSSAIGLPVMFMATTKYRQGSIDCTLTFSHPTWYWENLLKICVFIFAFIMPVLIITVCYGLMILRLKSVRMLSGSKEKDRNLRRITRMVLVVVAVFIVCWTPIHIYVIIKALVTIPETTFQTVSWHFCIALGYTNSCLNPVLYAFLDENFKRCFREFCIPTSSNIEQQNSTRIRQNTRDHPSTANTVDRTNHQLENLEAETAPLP

As to `CN(CC(NC(=O)Nc1ccc(OC(F)(F)F)cc1)C(C)(C)C)C1CCN(Cc2ccccc2)C1` (centres unmarked) [Compound 11, 1-(1-{[(1-Benzyl-pyrrolidin-3-yl)-methyl-amino]-methyl}-2,2-dimethyl-propyl)-3-(4-trifluoromethoxy-phenyl)-urea], the IC50 was greater than 1 µM in experiment [1], greater than 1 µM at calcium channel (type N), less than 0.1 µM at sodium channel (site 2) and greater than 1 µM on opioid (μ) receptor.
Turning to `CC(C)(C)[C@H](NC(=O)Nc1cccc(C(F)(F)F)c1)C(=O)N[C@@H](Cc1ccccc1)C(=O)N1CCNCC1` [Compound 15, N-(1-Benzyl-2-oxo-2-piperazin-1-yl-ethyl)-3,3-dimethyl-2-[3-(3-trifluoromethyl-phenyl) -ureido]-butyramide], the IC50 at calcium channel (type N), on sodium channel (site 2) and at opioid (μ) receptor was greater than 1 µM throughout.
As for `O=C(NC1CCN(Cc2ccccc2)CC1)[C@@H]1Cc2ccccc2CN1C(=O)Nc1ccc(OC(F)(F)F)cc1` [Compound 3f, 3,4Dihydro-1H-isoquinoline-2,3-dicarboxylic acid 3-(S)-[(1-benzyl-piperidin-4-yl)-amide] 2-[(4-trifluoromethoxy-phenyl)-amide]], the IC50 in experiment [1] was greater than 1 µM; at calcium channel (type N), greater than 1 µM; on sodium channel (site 2), less than 0.1 µM; on opioid (μ) receptor it was greater than 1 µM.
For the compound `CN(CC(NC(=O)Nc1cccc(C(F)(F)F)c1)C(C)(C)C)C1CCN(Cc2ccccc2)C1` (centres unmarked) [Compound 9, 1-(1-{[(1-Benzyl-pyrrolidin-3-yl)-methyl-amino]-methyl}-2,2-dimethyl-propyl)-3-(3-trifluoromethyl-phenyl)-urea], the IC50 was greater than 1 µM in experiment [1], greater than 1 µM on calcium channel (type N), less than 0.1 µM at sodium channel (site 2) and greater than 1 µM on opioid (μ) receptor.
On to `CC(C)(C)[C@H](NC(=O)Nc1ccc(OC(F)(F)F)cc1)C(=O)N[C@H]1CCN(Cc2ccccc2)C1` [Compound 19, N-(1-Benzyl-pyrrolidin-3-yl)-3,3-dimethyl-2-[3-(4-trifluoromethoxy-phenyl)-ureido]-butyramide], for which the IC50 is greater than 1 µM on calcium channel (type N), less than 1 µM on sodium channel (site 2) and greater than 1 µM on opioid (μ) receptor.
For the compound `CC(C)(C)[C@@H](CN[C@H](CN)Cc1ccccc1)NC(=O)Nc1cccc(C(F)(F)F)c1` [Compound 5, 1-{1-[(2-Amino-1-benzyl-ethylamino)-methyl]-2,2-dimethy-propyl}-3-(3-trifluoromethyl-phenyl)-urea], the IC50 is greater than 1 µM in experiment [1], greater than 1 µM on calcium channel (type N), less than 0.1 µM at sodium channel (site 2) and greater than 1 µM on opioid (μ) receptor.
For the compound `CN(C)CCN(Cc1ccccc1)C(=O)[C@@H]1Cc2ccccc2CN1C(=O)Nc1cccc(C(F)(F)F)c1` [Compound 3g, 3,4-Dihydro-1H-isoquinoline-2,3-dicarboxylic acid 3-(S)-[benzyl-(2-dimethylamino-ethyl)-amide] 2-[(3-trifluoromethyl-phenyl)-amide]], the IC50 in experiment [1] is greater than 1 µM; at calcium channel (type N) it was greater than 1 µM; at sodium channel (site 2), less than 0.1 µM; on opioid (μ) receptor, greater than 1 µM.
Take `CC(C)(C)C(NC(=O)Nc1cccc(C(F)(F)F)c1)C(=O)NC(CN)Cc1ccccc1` (centres unmarked) [Compound 4, N-(2-Amino-1-benzyl-ethyl)-3,3-dimethyl-2-[3-(3-trifluoromethyl-phenyl)ureido]-butyramide]: the IC50 was greater than 1 µM in experiment [1], greater than 1 µM on calcium channel (type N), less than 0.1 µM on sodium channel (site 2) and less than 0.1 µM on opioid (μ) receptor.
In the case of `CC(C)(C)[C@H](NC(=O)Nc1cc(F)ccc1F)C(=O)N[C@@H]1CCN(Cc2ccccc2)C1` [Compound 3d, N-(1-Benzyl-pyrrolidin-3-(R)-yl)-2-(S)-[3-(2,5-difluoro-phenyl)-ureido]-3,3-dimethyl-butyramide], the IC50 was greater than 1 µM in experiment [1], greater than 1 µM on calcium channel (type N), less than 1 µM on sodium channel (site 2) and greater than 1 µM at opioid (μ) receptor.
On to `CN(C)CCN(Cc1ccccc1)C(=O)[C@@H](NC(=O)Nc1cccc(C(F)(F)F)c1)C(C)(C)C` [Compound 16, N-Benzyl-N-(2-dimethylamino-ethyl)-3,3-dimethyl-2-[3-(3-trifluoromethyl-phenyl)-ureido]-butyramide], for which the IC50 on calcium channel (type N) was greater than 1 µM; at sodium channel (site 2), less than 1 µM; on opioid (μ) receptor, greater than 1 µM.
Take `CN(C)CCN(Cc1ccccc1)C(=O)[C@@H]1Cc2ccccc2CN1C(=O)Nc1ccc(OC(F)(F)F)cc1` [Compound 3h, 3,4-Dihydro-1H-isoquinoline-2,3-dicarboxylic acid 3-(S)-[benzyl-(2-dimethylamino-ethyl)-amide] 2-[(4-trifluoromethoxy-phenyl)-amide]]: the IC50 in experiment [1] was greater than 1 µM; at calcium channel (type N), greater than 1 µM; on sodium channel (site 2) it was less than 0.1 µM; at opioid (μ) receptor, greater than 1 µM.
`CN(C(=O)C(NC(=O)Nc1ccc(OC(F)(F)F)cc1)C(C)(C)C)C1CCN(Cc2ccccc2)C1` (centres unmarked) [Compound 10, N-(1-Benzyl-pyrrolidin-3-yl)-3,3,N-trimethyl-2-[3-(4-trifluoromethoxy-phenyl)-ureido]-butyramide]: the IC50 in experiment [1] was greater than 1 µM; on calcium channel (type N) it was greater than 1 µM; on sodium channel (site 2), less than 1 µM; at opioid (μ) receptor it was greater than 1 µM.
Regarding `CC(C)(C)[C@H](NC(=O)Nc1cc(F)ccc1F)C(=O)N[C@H]1CCN(Cc2ccccc2)C1` [Compound 3c, N-(1-Benzyl-pyrrolidin-3-(S)-yl)-2-(S)-[3-(2,5-difluoro-phenyl)-ureido]-3,3-dimethyl-butyramide], the IC50 in experiment [1] is greater than 1 µM; at calcium channel (type N), greater than 1 µM; at sodium channel (site 2), less than 1 µM; on opioid (μ) receptor, greater than 1 µM.
With `CN(C(=O)C(NC(=O)Nc1cccc(C(F)(F)F)c1)C(C)(C)C)C1CCN(Cc2ccccc2)C1` (centres unmarked) [Compound 8, N-(1-Benzyl-pyrrolidin-3-yl)-3,3,N-trimethyl-2-[3-(3-trifluoromethyl-phenyl)-ureido]-butyramide], the IC50 in experiment [1] is greater than 1 µM; at calcium channel (type N), greater than 1 µM; at sodium channel (site 2), less than 0.1 µM; at opioid (μ) receptor it was greater than 1 µM.
Take `CC(C)(C)[C@H](NC(=O)Nc1cccc(C(F)(F)F)c1)C(=O)N[C@@H]1CCN(Cc2ccccc2)C1` [Compound 3a, N-(1-Benzyl-pyrrolidin-3-(R)-yl)-3,3-dimethyl-2-(S)-[3-(3-trifluoromethyl-phenyl)-ureido]-butyramide]: the IC50 in experiment [1] is greater than 1 µM; at calcium channel (type N), greater than 1 µM; on sodium channel (site 2), less than 1 µM; at opioid (μ) receptor it was greater than 1 µM.
Turning to `CC(C)(C)[C@H](NC(=O)Nc1cccc(C(F)(F)F)c1)C(=O)N[C@H]1CCN(Cc2ccccc2)C1` [Compound 3b, N-(1-Benzyl-pyrrolidin-3-(S)-yl)-3,3-dimethyl-2-(S)-[3-(3-trifluoromethyl-phenyl)-ureido]-butyramide], the IC50 in experiment [1] was greater than 1 µM; on calcium channel (type N) it was greater than 1 µM; on sodium channel (site 2), less than 0.1 µM; at opioid (μ) receptor it was less than 1 µM.
Turning to `O=C(NC1CCN(Cc2ccccc2)CC1)[C@@H]1Cc2ccccc2CN1C(=O)Nc1cccc(C(F)(F)F)c1` [Compound 3e, 3,4-Dihydro-1H-isoquinoline-2,3-dicarboxylic acid 3-(S)-[(1-benzyl-piperidin-4-yl)-amide] 2-[(3-trifluoromethyl-phenyl)-amide]], the IC50 is greater than 1 µM in experiment [1], greater than 1 µM at calcium channel (type N), less than 0.1 µM at sodium channel (site 2) and greater than 1 µM at opioid (μ) receptor.
`CN(C)CCN(Cc1ccccc1)C(=O)[C@@H](NC(=O)Nc1ccc(OC(F)(F)F)cc1)C(C)(C)C` [Compound 17, N-Benzyl-N-(2-dimethylamino-ethyl)-3,3-dimethyl-2-[3-(4trifluoromethoxy-phenyl)-ureido]-butyramide]: the IC50 on calcium channel (type N) is greater than 1 µM; at sodium channel (site 2), less than 0.1 µM; on opioid (μ) receptor it was greater than 1 µM.
As for `CN(C)C[C@H](Cc1ccccc1)NC(=O)[C@@H](NC(=O)Nc1cccc(C(F)(F)F)c1)C(C)(C)C` [Compound 18, N-(1-Benzyl-2-dimethylamino-ethyl)-3,3-dimethyl-2-[3-(3-trifluoromethyl-phenyl)-ureido]-butyramide], the IC50 in experiment [1] is greater than 1 µM; on calcium channel (type N), greater than 1 µM; on sodium channel (site 2), less than 1 µM; on opioid (μ) receptor, less than 0.1 µM.
For the compound `CN(C)CCN(Cc1ccccc1)C(=O)[C@@H]1CCCN1C(=O)Nc1ccc(OC(F)(F)F)cc1` [Compound 22, Pyrrolidine-1,2-dicarboxylic acid 2-[benzyl-(2-dimethylamino-ethyl)-amide] 1-[(4-trifluoromethoxy-phenyl)-amide]], the IC50 was greater than 1 µM at calcium channel (type N) and less than 1 µM on sodium channel (site 2).
